# Data taken from ChEMBL document CHEMBL3507680, “University of Dundee, Gates Library screen for HepG2 cell viability”.
# Assay: Human HepG2 cell viability assay in 384 well format
# Format: toxicity, cell-based
# Set-up: dose 125 nL, time 70.5 hour; concentration not given beside the values
# Details: HepG2 cells, read-out: Inhibition
row,SMILES,cytotoxicity at 70.5 h [%]
1,CC1CC(=O)c2cc(C(=O)N3CCOCC3)c(=O)[nH]c2C1 (configuration not stated),-0.268
2,COc1ccc(CN(C)[C@@H]2CN(S(=O)(=O)C(C)C)C[C@H]2O)cc1,-2.64
3,Cc1ncccc1CNCC1CCc2nnc(C(C)C)n2C1 (configuration not stated),-7.03
4,Cc1cc(NC(=O)NCc2ccccn2)n(C)n1,-6.19
5,CCc1ncc2c(n1)CN(C(=O)CC(C)NC(C)=O)C2 (configuration not stated),-5.94
6,Cc1ccc(C(=O)N2C[C@@H](OCC3CCOCC3)[C@H]3OCCC[C@H]32)o1,-27.2
7,Cc1cc(CS(=O)(=O)N(C)C(C)c2ccc(Cl)cc2)on1 (configuration not stated),-11.1
8,COc1ccc(CN2CCN(C3CCc4ccccc4C3)CC2)cc1O (configuration not stated),3.2
9,O=C(c1ccccc1F)N1CCC2(CC1)CC(N1CCCC1)CO2 (configuration not stated),-7.88
10,Cc1nn(C)c(C)c1OCC(=O)N1CCCCC1,-2.11
11,Cc1cccc(OCCNC(=O)CN2CCN(C)CC2C)c1 (configuration not stated),25.2
12,CCN1CCCC(CN2CCn3nc(CNC(=O)N(C)C)cc3C2)C1 (configuration not stated),-8.51
13,CCNC(c1ccc(F)cc1)c1cccnc1 (configuration not stated),-19.7
14,CN(C)CCN1CCO[C@H]2CN(C(=O)c3ccsc3)C[C@H]21,-6.87
15,O=C(N1CCCC1)N1Cc2nccn2CC(COc2cccnc2)C1 (configuration not stated),-9.49
16,CN1CCC2(CC1)OC(C(=O)NCc1cccnc1)Cn1ccnc12 (configuration not stated),-11.2
17,CCOCC(=O)NC(C#N)c1cnn(-c2ccccc2)c1 (configuration not stated),-9.95
18,Fc1cccc(CN2CCOCC3(CCN(C4CCOCC4)C3)C2)c1 (configuration not stated),-7.34
19,COCCN1CCN(CC(=O)N(C)Cc2ccc(C)o2)CC1C (configuration not stated),-12.6

row,SMILES,cytotoxicity at 70.5 h [%]
1,CC(C)(C)c1n[nH]c(C2CN(C(=O)CCc3cscn3)CCO2)n1 (configuration not stated),-21.1
2,Cc1ccc(Cl)cc1S(=O)(=O)NCc1cnc(N(C)C)n1C,-11.7
3,CCOC(C)c1noc(CN2CCCN(c3ccccn3)CC2)n1 (configuration not stated),-12.6
4,CCc1oc(C(=O)NCCc2cc(O)nc(C)n2)cc1CN1CCCC1,-6.98
5,Cc1cc(C[C@@H]2COC[C@H]2NCc2ccc(Cl)c(Cl)c2)on1,19.8
6,COc1cc(C)cc(OC)c1C(C(=O)O)N(C)Cc1c(C)nn(C)c1C (configuration not stated),-14.7
7,Cn1cccc1C(=O)NCc1cnc2n1CCN(CC1CCOCC1)C2,-3.17
8,CCc1c(C)nc(C2CCCN2C(=O)c2cc(C)no2)nc1O (configuration not stated),10.5
9,Cc1ccc2c(n1)N(C)CCN(C(=O)NC(C)C)C2,-6.1
10,CN(Cc1ccc(F)cc1)C(=O)NCC1(N2CCOCC2)CCSC1 (configuration not stated),11.7
11,O=C(Cc1csc(-c2ccc(Cl)cc2)n1)NC(C(=O)O)c1ccccc1 (configuration not stated),-9.96
12,NC(=O)c1cc(C2CCCN(CCOCC(F)(F)F)C2)n[nH]1 (configuration not stated),34.2
13,Cc1cnc(NC(=O)c2ccc(C3CCCN3CC(C)C)s2)s1 (configuration not stated),-5.46
14,Cc1cc(N(C)Cc2snnc2C)nc(-c2cccnc2)n1,-12.5
15,CC(C)c1nc(CN2CCOC(Cn3cncn3)C2)cs1 (configuration not stated),-3.19
16,CNC(=O)N1CCOC(C)(c2cnn(C)c2)C1 (configuration not stated),-5.87
17,COc1ccccc1OCCNCCn1cccn1,-10.7
18,O=S(=O)(NC1=NCN(CCc2cccs2)CN1)c1ccc(Br)cc1,-18.9
19,CN1CCC(CNC(=O)NCc2ccc(N(C)C)cc2)CC1,-2.97

row,SMILES,cytotoxicity at 70.5 h [%]
1,CCc1nc(CN2CCCC(NCc3nc4ccccc4o3)C2)no1 (configuration not stated),-1.56
2,Cc1nn(C)c(Oc2ccccc2)c1CNC1CCOc2ccccc21 (configuration not stated),-1.6
3,CN(Cc1nc(-c2cccnc2)no1)C(=O)c1c2c(nn1C)CCCC2,-1.52
4,N#Cc1ccc(N2CCC(NS(=O)(=O)c3cccs3)CC2)c(F)c1,-9.83
5,COCCNc1nc2c(c(NCC3CCOC3)n1)CCNCC2 (configuration not stated),-0.779
6,CCn1cc(N2Cc3nc(N4CCCC4)ncc3C2=O)cn1,0.0553
7,CC(C)(C)N1CC(C(=O)NCc2nc(C3CCCCC3)no2)CC1=O (configuration not stated),-4.38
8,Cc1cccc(CN2CCOC3(CCCN(CC(=O)N(C)C)C3)C2)n1 (configuration not stated),-5.53
9,CC(=O)N1CCC2(CC1)CN(CC1CC1)c1ccc(F)cc12,1.47
10,CN1CCC(Cc2noc(-c3cccc4c3OCC4)n2)CC1,-8.69
11,Cc1ccc(S(=O)(=O)N2CCC3(CC(C(=O)NCC(C)C)=NO3)C2)cc1 (configuration not stated),7.95
12,Cc1ccc(-c2ncc(CN3CCOC(c4ccco4)C3)s2)o1 (configuration not stated),-6.87
13,O=C(c1cccnc1)N1CC[C@H](OCC2CC2)[C@@H]1Cc1cccnc1,-5.08
14,CN(C)S(=O)(=O)N1CCOCC1CC(=O)NCCOc1ccccc1 (configuration not stated),-15.5
15,Cc1cccc(OC2CN(C(=O)c3cnn(C)c3)C2)c1,16.2
16,COc1ccnc(N2CCN(CC(=O)N3CCOCC3)CC2)n1,2.32
17,O=C(Nc1cccnc1)[C@H]1CO[C@H]2CCN(c3ncc(F)cn3)C[C@H]2C1,4.85
18,Cc1oc(C(=O)O)cc1S(=O)(=O)Nc1ccc(Cl)c(Cl)c1,-3.75
19,CS(=O)(=O)N1CCC2(CC1)CC(NCc1ccccn1)c1ccccc12 (configuration not stated),-9.6
